Type in all cases: in vivo
The subject of assay [1] is Euphorbia heterophylla. Nature of the assay: Greenhouse pre-emergence (PRE) herbicidal test on EPHHL. The following applies: Euphorbia heterophylla, pre-emergence. The essentials:
(§1)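 Seeds were sown per species in loamy sand with ~3.0% humus, treated pre-emergence and kept at 10-25° C or 20-35° C depending on species. Damage was scored at 20 days after treatment on a 0-100 scale (100 = no emergence or complete destruction of above-ground parts, 0 = no damage).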

Assay [2] relates to Geranium pusillum. As to the kind of experiment: Greenhouse pre-emergence (PRE) herbicidal test on GERPU. Conditions: Geranium pusillum, pre-emergence, GERPU PRE. The text has this:
(§2) The culture containers used were plastic pots containing loamy sand with approximately 3.0% of humus as substrate. The seeds of the test plants were sown separately for each species.
(§3) For the pre-emergence treatment, the active compounds, suspended or emulsified in water, were applied directly after sowing by means of finely distributing nozzles. The containers were irrigated gently to promote germination and growth and subsequently covered with transparent plastic hoods until the plants had rooted. This cover caused uniform germination of the test plants unless this was adversely affected by the active compounds.
(§4) Depending on the species, the plants were kept at 10-25° C. and 20-35° C., respectively.
(§5) The test period extended over 2 to 4 weeks. During this time, the plants were tended and their response to the individual treatments was evaluated.
(§6) Evaluation was carried out using a scale from 0 to 100. 100 means no emergence of the plants, or complete destruction of at least the above-ground parts, and 0 means no damage or normal course of growth. A good herbicidal activity is given at values of at least 70, and very good herbicidal activity is given at values of at least 85.
(§7) If not stated differently, the respective components A and B, and if appropriate, C were formulated as a 5% by weight strength emulsion concentrate and, with addition of the amount of solvent system, introduced into the spray liquor used for applying the active compound.
(§8) As indicated application was either post emergent (POST) at the respective growth stage (GS) of the weed (BBCH code), or pre-emergent (PRE).
(§9) Assessment was 20 days after treatment (DAT).

Assay [3] has as its system Lolium multiflorum. As to the kind of experiment: Greenhouse pre-emergence (PRE) herbicidal test on LOLMU. The following applies: Lolium multiflorum, pre-emergence, LOLMU PRE. The method, boiled down: as §1
For assay [4], the system named is Commelina benghalensis. As to the kind of experiment: Greenhouse pre-emergence (PRE) herbicidal test on COMBE. Conditions: Commelina benghalensis, pre-emergence. The essentials: as §1
Assay [5] relates to Abutilon theophrasti. Nature of the assay: Greenhouse pre-emergence (PRE) herbicidal test on ABUTH. The following applies: Abutilon theophrasti, pre-emergence. The method, boiled down: as §1
The test system of assay [6] is Avena fatua. As to the kind of experiment: Greenhouse pre-emergence (PRE) herbicidal test on AVEFA.
Text: as §2, §3, §4, §5, §6, §7, §8, §9

Assay [7] relates to Alopecurus myosuroides. Nature of the assay: Greenhouse pre-emergence (PRE) herbicidal test on ALOMY. Conditions: Alopecurus myosuroides, pre-emergence, ALOMY PRE. The method, boiled down: as §1
The test system of assay [8] is Ipomoea hederacea. As to the kind of experiment: Greenhouse pre-emergence (PRE) herbicidal test on IPOHE. Conditions: Ipomoea hederacea, pre-emergence.
Text: as §2, §3, §4, §5, §6, §7, §8, §9

Assay [9] has as its system Galium aparine. Nature of the assay: Greenhouse pre-emergence (PRE) herbicidal test on GALAP. Conditions: Galium aparine, pre-emergence; GALAP PRE, use rate 1200 gai/ha.
Text: as §2, §3, §4, §5, §6, §7, §8, §9

In assay [10] the test system is Geranium pusillum. As to the kind of experiment: Greenhouse post-emergence (POST) herbicidal test on GERPU. The following applies: Geranium pusillum, post-emergence, 480 h, POST, GERPU, use rate 50 gai/ha, 20 DAT. The essentials:
(§10)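 Weeds grown in loamy sand (~3.0% humus) to 3–15 cm were sprayed post-emergence with compounds suspended or emulsified in water, formulated as 5% emulsion concentrates. Plants were kept at 10-25 °C or 20-35 °C by species. Damage was scored 0–100 (100 = complete destruction) at 20 DAT.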

Assay [11] deals with Digitaria sanguinalis. Nature of the assay: Greenhouse post-emergence (POST) herbicidal test on DIGSA. The following applies: Digitaria sanguinalis, post-emergence, 480 h, POST, DIGSA, use rate 100 gai/ha, 20 DAT. The method, boiled down:
as §10

The test system of assay [12] is Echinochloa crus-galli. Nature of the assay: Greenhouse post-emergence (POST) herbicidal test on ECHCG. The following applies: Echinochloa crus-galli, post-emergence, 480 h, POST, ECHCG, use rate 100 gai/ha, 20 DAT; read-out: % activity. The essentials:
as §10

The test system of assay [13] is Commelina benghalensis. Nature of the assay: Greenhouse post-emergence (POST) herbicidal test on COMBE. The following applies: 480 h, 20 DAT. On the procedure: as §2
(§11) For the post-emergence treatment, the test plants were grown to a plant height of from 3 to 15 cm, depending on the plant habit, and only then treated with the active compounds which had been suspended or emulsified in water. To this end, the test plants were either sown directly, and grown in the same containers, or they were first grown separately as seedlings and transplanted into the test containers a few days prior to treatment.
as §4, §5, §6, §7, §8, §9

The subject of assay [14] is Brachiaria decumbens. Nature of the assay: Greenhouse pre-emergence (PRE) herbicidal test on BRADC. The following applies: Urochloa decumbens, BRADC PRE, use rate 400 gai/ha.
Text: as §2, §3, §4, §5, §6, §7, §8, §9

Assay [15] concerns Euphorbia heterophylla. As to the kind of experiment: Greenhouse post-emergence (POST) herbicidal test on EPHHL. The following applies: Euphorbia heterophylla, post-emergence, 480 h, POST, EPHHL, 20 DAT. The method, boiled down: as §10
Assay [16] relates to Setaria viridis. Nature of the assay: Greenhouse post-emergence (POST) herbicidal test on SETVI. Conditions: 480 h, 20 DAT. On the procedure: as §2, §11, §4, §5, §6, §7, §8, §9
Assay [17] has as its system Echinochloa crus-galli. As to the kind of experiment: Greenhouse pre-emergence (PRE) herbicidal test on ECHCG. Conditions: Echinochloa crus-galli, pre-emergence, 480 h, PRE, ECHCG, 20 DAT.
For assay [18], the system named is Amaranthus retroflexus. Nature of the assay: Greenhouse post-emergence (POST) herbicidal test on AMARE. Conditions: Amaranthus retroflexus, post-emergence, 480 h, POST, use rate 125 gai/ha, 20 DAT. The method, boiled down: as §10
Assay [19] concerns AMAPA. As to the kind of experiment: Greenhouse pre-emergence (PRE) herbicidal test on AMAPA. Conditions: pre-emergence, 480 h, 20 DAT.
[20] abbreviates: use rate 8 gai/ha, read-out: % activity.

For `Nc1c([N+](=O)[O-])ccc(Oc2ccccc2)c1Cl` [Aclonifen, aclonifen], the inhibition at 300 g/ha is 20% in [1] (EPHHL PRE, use rate 300 gai/ha); 30% in [2] (use rate 300 gai/ha); 10% in assay [3] (use rate 300 gai/ha); 0% in [6] (use rate 300 gai/ha); 0% in assay [7] (use rate 300 gai/ha). For the same compound, the inhibition at 1200 g/ha turned out to be 50% in assay [1] (EPHHL PRE, use rate 1200 gai/ha); 65% in [2] (use rate 1200 gai/ha); 85% in assay [4] (COMBE PRE, use rate 1200 gai/ha); 35% in [5] (ABUTH PRE, use rate 1200 gai/ha); 0% in assay [6] (use rate 1200 gai/ha); 50% in assay [7] (use rate 1200 gai/ha). Besides, the inhibition at 1200 g/ha was 0% in assay [8] (IPOHE PRE, use rate 1200 gai/ha) and 45% in assay [9].

With `O=C(Nc1ccc(F)cc1F)c1cccnc1Oc1cccc(C(F)(F)F)c1` [Diflufenican, diflufenican], the inhibition at 50 g/ha in assay [10] and in [13] (use rate 50 gai/ha) was 25% in each case. Besides, the inhibition at 100 g/ha was 35% in assay [11], 40% in assay [12] and 20% in [13] (use rate 100 gai/ha).

In the case of `CCC(C)(CC)c1cc(NC(=O)c2c(OC)cccc2OC)on1` [Isoxaben, isoxaben], the inhibition at 100 g/ha in assay [2] (use rate 100 gai/ha) came to 15%; in assay [3] (use rate 100 gai/ha), 0%; in assay [6] (use rate 100 gai/ha), 0%. Also, the inhibition at 400 g/ha in [3] (use rate 400 gai/ha) was determined as 0%; in assay [14] it was 0%; in [6] (use rate 400 gai/ha) it was 0%; in [7] (use rate 400 gai/ha) it was 15%.

Regarding `Cn1nc(C(F)(F)F)c(CS(=O)(=O)C2=NOC(C)(C)C2)c1OC(F)F` [Pyroxasulfone, pyroxasulfone], the inhibition at 4 g/ha in assay [1] (480 h, PRE, EPHHL, use rate 4 gai/ha, 20 DAT) was found to be 25%; in assay [16] (use rate 4 gai/ha) it was 30%; in [5] (480 h, PRE, ABUTH, use rate 4 gai/ha, 20 DAT), 0%; in assay [17] (use rate 4 gai/ha), 80%. The inhibition at 8 g/ha in [1] (480 h, PRE, EPHHL, use rate 8 gai/ha, 20 DAT, read-out: % activity) is 20%; in [15] (setting [20]) it was 10%; in assay [16] (use rate 8 gai/ha), 40%; in assay [5] (480 h, PRE, ABUTH, use rate 8 gai/ha, 20 DAT, read-out: % activity) it was 0%; in assay [17] (setting [20]), 80%. Besides, the inhibition at 16 g/ha in [1] (480 h, PRE, EPHHL, use rate 16 gai/ha, 20 DAT) stood at 25%; in [15] (use rate 16 gai/ha), 25%; in [16] (use rate 16 gai/ha) it was 80%; in assay [5] (480 h, PRE, ABUTH, use rate 16 gai/ha, 20 DAT) it was 10%; in assay [13] (use rate 16 gai/ha), 45%; in assay [8] (480 h, PRE, IPOHE, use rate 16 gai/ha, 20 DAT) it was 0%.

Take `O=C(O)c1c(Cl)ccc2cc(Cl)cnc12` [Quinclorac, quinclorac]: the values for the inhibition at 125 g/ha in assay [18] and in assay [19] (use rate 125 gai/ha) were 50% and 65%, respectively. The inhibition at 500 g/ha in assay [4] (480 h, PRE, use rate 500 gai/ha, 20 DAT) is 65%; in assay [19] (use rate 500 gai/ha) it was 70%. Further, the inhibition at 62.5 g/ha in assay [19] (use rate 62.5 gai/ha) stood at 60%. The compound further displayed an inhibition at 250 g/ha in assay [19] (use rate 250 gai/ha) of 65%.

For the origin of these results see US20260007133A1, “HERBICIDAL COMPOSITION COMPRISING AZINE COMPOUNDS” (BASF SE, priority 2022, published 2026).
